This is an account of results in patent US12595289B2, “Therapeutic agent for breast cancer comprising BIG3-PHB2 interaction-inhibiting peptide derived from PHB2” (TOKUSHIMA UNIVERSITY, priority 2018, dated 2026).

Where “and” joins values, the source holds several entries; their conditions need not be identical. Equal entries are not always repeated. Positions of bridges follow the written chain, without caps; N, C: chain ends. Non-standard residues stand in square brackets, D forms with d. Residues, ends and D or L forms follow the SMILES beside them. No end group written: not given here. 2Nal = N[C@@H](Cc1ccc2ccccc2c1)C(=O)O; Nle = CCCC[C@H](N)C(=O)O; PEG = not defined here

The test system of experiment [1] is Human breast cancer cell line MCF-7. Put plainly: Estrogen (E2)-dependent growth assay on MCF-7. It is filed as cell-based. The following applies: 24 hours; for suppression ratio of estrogen-dependent growth: MCF-7, 10 nM estrogen, peptide concentration not given (FIG. 11B, 12B); for suppression ratio of E2-dependent growth: MCF-7, 10 μM each peptide, 10 nM estrogen. As to the method: (§1) Growth assay on MCF-7 was carried out by seeding cells into 48-well plates (2×10^4 cells/200 μL). First, on the next day after seeding, the medium was changed to phenol red-free DMEM/F12 (Thermo Fisher Scientific) supplemented with 10% FBS, 1% Antibiotic/Antimycotic solution, 0.1 mM NEAA, 1 mM sodium pyruvate, and 10 μg/mL insulin. 24 hours later, the cells were treated with 10 nM 17β-estradiol (estrogen, Sigma) alone or with 10 nM estrogen and a PHB2 sequence-derived peptide. Growth assay on MCF-10A was carried out by seeding cells into 48-well plates (2×10^4 cells/200 μL). 24 hours after seeding, PHB2 sequence-derived peptide was added. Growth assays were carried out using the Cell Counting Kit-8 (CCK-8) (Dojindo, Kumamoto, Japan). The data are shown by mean±standard deviation of three independent experiments.
PHB2 peptides 11-21aa and 76-88aa were cross-linked by three types of cross-linking methods (FIG. 10A: hexafluorobenzene cross-linking, decafluorobiphenyl cross-linking, and disulfide cross-linking) to prepare cross-linked PHB2 peptides (stapled PHB2 peptides) (FIG. 10B), and the suppressive effects of these peptides on estrogen-dependent growth were examined. In the experiment, breast cancer cells MCF-7 were seeded, 10 μM each PHB2 peptide and 10 nM estrogen were added after 48 hours, and the cell number was evaluated after another 24 hours by MTT assay.

Experiment [2] deals with PHB2 (Ser39) phosphorylation. Put plainly: Ser39 phosphorylation of PHB2 in MCF-7 by Western blotting. The format is cell-based, Human. The following applies: MCF-7, 10 μM each peptide, 10 nM estrogen, 24 hours (FIG. 2C). As to the method:
For immunoblot analyses, after performing SDS-PAGE, the membranes blotted with proteins were blocked with 4% BlockAce solution (Dainippon Pharmaceutical, Osaka, Japan) for 3 hours and then incubated to react for 12 hours with antibodies against BIG3 (1:1,000), PHB2 (1:1,000) (Abcam, Cambridge, UK) and phosphorylated PHB2 (Ser39, Scrum, Tokyo, Japan). After allowing interaction with HRP-labeled secondary antibodies (anti-rat IgG-HRP for BIG3, 1:5,000; and anti-rabbit IgG-HRP for PHB2 and phosphorylated PHB2, 1:1,000) (Santa Cruz Biotechnology, Dallas, TX, USA) for 1 hour, the blots were developed with the Enhanced Chemiluminescence (ECL) system (GE Healthcare, Buckinghamshire, UK) and scanned using the Image Reader LAS-3000 mini (Fujifilm, Tokyo, Japan).
A general note: In western blotting, separated proteins are transferred to a membrane and probed.

The subject of experiment [3] is Normal mammary gland epithelial cell line MCF-10A. Put plainly: Growth assay on normal mammary gland epithelial cells MCF-10A. The format is cell-based. As to the method:
as §1

Experiment [4] has as its system Human breast cancer cell line MCF-7. Put plainly: Estrogen (E2)-dependent growth assay on MCF-7. It is filed as cell-based. As to conditions: 10 nM estrogen.
[5] abbreviates: MCF-10A (FIG. 6B), 1 μM or 10 μM, up to 96 hours.
Setting [6] is: MCF-10A, cyclic 11-21aa 4 μM, cyclic 76-88aa 2 μM (FIG. 7C).
Setting [7] is: MCF-7, 4 μM cyclic 11-21aa, 2 μM cyclic 76-88aa, up to 96 hours (FIG. 7B).
Where [8] appears, read: MCF-7, 10 μM peptide alone, after 96 hours.

For the molecule “SEQ ID NO: 127: cyclic PHB2 peptide 76-88aa, decafluorobiphenyl cross-linked (CQYPIIYDIRARPRCF[Nal]RRRR; linker 1-15 via decafluorobiphenyl; not fully specified (C-terminus))”, the “suppression ratio of estrogen-dependent growth” value in experiment [1] was “about 80%”.

In the case of “SEQ ID NO: 121: cross-linked PHB2 peptide 76-88aa without polyarginine at the C terminus (CQYPIIYDIRARPRC-NH2; disulfide 1-15)”, in experiment [1], the “suppression ratio of E2-dependent growth” value is “about 70%”. The same measure, in the same setting: as for “SEQ ID NO: 117: cross-linked PHB2 peptide 11-21aa without polyarginine at the C terminus (CRLPAGPRG[Nle]GTC-NH2; disulfide 1-13)”, the entry is “about 70%”. Turning to “No. 3: PHB2 sequence-derived peptide 38-50aa (ESVFTVEGGHRAI; not fully specified (C-terminus))”, in experiment [1], the “suppression ratio of E2-dependent growth” value is 23% and 17%. On the same count and under the same terms, the same measure for “SEQ ID NO: 115: cross-linked PHB2 peptide 11-21aa without polyarginine at the C terminus (CRLPAGPRG[Nle]GTC-NH2; linker 1-13 via hexafluorobenzene)”: “about 70%”. As for “No. 6: PHB2 peptide 86-100aa (negative control) (RPRKISSPTGSKDLQ; not fully specified (C-terminus))”, in experiment [2], the “band intensity of Ser39 phosphorylation of PHB2 compared to ERAP treatment” value came to 10%. Further, the “suppression ratio of E2-dependent growth” value in experiment [1] is on record as “about 10%”.

In the case of “SEQ ID NO: 123: cyclic PHB2 peptide 11-21aa, hexafluorobenzene cross-linked (CRLPAGPRG[Nle]GTCF[Nal]RRRR; linker 1-13 via hexafluorobenzene; not fully specified (C-terminus))”, in experiment [1], the “suppression ratio of estrogen-dependent growth” value is reported as “about 70%”. On the same count and under the same terms, the same measure for “SEQ ID NO: 126: cyclic PHB2 peptide 76-88aa, hexafluorobenzene cross-linked (CQYPIIYDIRARPRCF[Nal]RRRR; linker 1-15 via hexafluorobenzene; not fully specified (C-terminus))”: “about 80%”.

“No. 2: PHB2 sequence-derived peptide 42-50aa (TVEGGHRAI; not fully specified (C-terminus))”: the “suppression ratio of E2-dependent growth” value in experiment [1] was 22% and 20%. On the same count and under the same terms, as for “SEQ ID NO: 116: cross-linked PHB2 peptide 11-21aa without polyarginine at the C terminus (CRLPAGPRG[Nle]GTC-NH2; linker 1-13 via decafluorobiphenyl)”, the entry is “about 70%”. For the molecule “SEQ ID NO: 134: PHB2 peptide 11-22aa in which glycines at positions 15 and 18 were substituted with D-leucines (RLPA[dL]PR[dL]MGTARRRRRRRR-NH2)”, in experiment [1], the “suppression ratio of estrogen-dependent growth” value is “about 65%”. As for “No. 50: PHB2 sequence-derived peptide 75-89aa (FQYPIIYDIRARPRK; not fully specified (C-terminus))”, the “suppression ratio of E2-dependent growth” value in experiment [1] is “almost the same suppressive effect”. On to `CCCC[C@@H]1NC(=O)CNC(=O)[C@H](CCCNC(=N)N)NC(=O)[C@@H]2CCCN2C(=O)CNC(=O)[C@H](C)NC(=O)[C@@H]2CCCN2C(=O)[C@H](CC(C)C)NC(=O)[C@H](CCCNC(=N)N)NC(=O)[C@@H]2CSSC[C@H](NC(=O)[C@H]([C@@H](C)O)NC(=O)CNC1=O)C(=O)N[C@@H](Cc1ccccc1)C(=O)N[C@@H](Cc1ccc3ccccc3c1)C(=O)N[C@@H](CCCNC(=N)N)C(=O)N[C@@H](CCCNC(=N)N)C(=O)N[C@@H](CCCNC(=N)N)C(=O)N[C@@H](CCCNC(=N)N)C(=O)N2` [cyclic 11-21aa] (cyclo(CRLPAGPRG[Nle]GTCF[2Nal]RRRR); disulfide 1-13), for which the “effect on growth of MCF-10A” value in experiment [3] (setting [5]) is “no effect on the growth”; in experiment [3] (setting [6]), “no effect on growth”. The “suppression ratio of E2-dependent growth” value is “enhanced suppression ratios compared to non-cyclic peptides” in experiment [1], 53% in experiment [1] (listed as cyclic peptide 11-21aa), 41% in experiment [4] (setting [7]) and 67% in experiment [4] (setting [8]).

As for “SEQ ID NO: 119: cross-linked PHB2 peptide 76-88aa without polyarginine at the C terminus (CQYPIIYDIRARPRC-NH2; linker 1-15 via hexafluorobenzene)”, the “suppression ratio of E2-dependent growth” value in experiment [1] is reported as “about 70%”. Regarding “SEQ ID NO: 133: PHB2 peptide 11-22aa in which glycines at positions 15 and 18 were substituted with D-alanines (RLPA[dA]PR[dA]MGTARRRRRRRR-NH2)”, the “suppression ratio of estrogen-dependent growth” value in experiment [1] is “no suppressive effect”. Consider “branched bound: 11-22aa and 76-90aa sequences synthesized with branching, linked via a PEG sequence (peptide 1 RLPAGPRGMGTA; peptide 2 QYPIIYDIRARPRKI; linker (positions not given here) via PEG; not fully specified (N-terminus); reading uncertain; also: branched construct, branch and link places not given here)”, for which the “inhibition ratio of MCF-10A growth” value in experiment [3] (MCF-10A, 10 μM each peptide, 24 hours) is “no effect on growth”. Besides, the “suppression ratio of E2-dependent growth” value in experiment [1] was found to be 57%. With “SEQ ID NO: 120: cross-linked PHB2 peptide 76-88aa without polyarginine at the C terminus (CQYPIIYDIRARPRC-NH2; linker 1-15 via decafluorobiphenyl)”, the “suppression ratio of E2-dependent growth” value in experiment [1] was “about 70%”. With `CC[C@H](C)[C@@H]1NC(=O)[C@H](CC(=O)O)NC(=O)[C@H](Cc2ccc(O)cc2)NC(=O)[C@H]([C@@H](C)CC)NC(=O)[C@H]([C@@H](C)CC)NC(=O)[C@@H]2CCCN2C(=O)[C@H](Cc2ccc(O)cc2)NC(=O)[C@H](CCC(N)=O)NC(=O)[C@@H]2CSSC[C@H](NC(=O)[C@H](CCCNC(=N)N)NC(=O)[C@@H]3CCCN3C(=O)[C@H](CCCNC(=N)N)NC(=O)[C@H](C)NC(=O)[C@H](CCCNC(=N)N)NC1=O)C(=O)N[C@@H](Cc1ccccc1)C(=O)N[C@@H](Cc1ccc3ccccc3c1)C(=O)N[C@@H](CCCNC(=N)N)C(=O)N[C@@H](CCCNC(=N)N)C(=O)N[C@@H](CCCNC(=N)N)C(=O)N[C@@H](CCCNC(=N)N)C(=O)N2` [cyclic 76-88aa] (cyclo(CQYPIIYDIRARPRCF[2Nal]RRRR); disulfide 1-15), the “effect on growth of MCF-10A” value in experiment [3] (setting [5]) is on record as “no effect on the growth”; in experiment [3] (setting [6]), “no effect on growth”. Besides, the “suppression ratio of E2-dependent growth” value in experiment [1] was “enhanced suppression ratios compared to non-cyclic peptides”; in experiment [1] (listed as cyclic peptide 76-88aa), 58%; in experiment [4] (setting [7]), 59%; in experiment [4] (setting [8]) it was 72%.

As to “SEQ ID NO: 124: cyclic PHB2 peptide 11-21aa, decafluorobiphenyl cross-linked (CRLPAGPRG[Nle]GTCF[Nal]RRRR; linker 1-13 via decafluorobiphenyl; not fully specified (C-terminus))”, the “suppression ratio of estrogen-dependent growth” value in experiment [1] was “about 70%”.
